In patent US20120225862A1, “HETEROARYL BENZAMIDES, COMPOSITIONS AND METHODS OF USE” (AUCKLAND UNIVSERVICES LIMITED, priority 2009, published 2012):

Experiments:
RCC4 = assay: XTT IC50 / viability assay, RCC4 cells; format: cell-based, human
How it was run: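 RCC4 parental and VHL-reintroduced RCC4/VHL cells (DMEM, 10% FCS) treated with serially diluted drug for four days. Viability by XTT (0.3 mg/mL) with N-methyl dibenzopyrazine methyl sulfate, 1–2 h at 37 °C, absorbance 450 nm; IC50 by linear interpolation.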

RCC4/VHL [1] = assay: Clonogenic survival, RCC4/VHL; format: cell-based, human; details: RCC4/VHL (wild-type VHL), 5 μM, 10 days
Method: Three hundred cells were plated into 60-mm tissue culture dishes in DMEM. The next day, cells were treated with vehicle or drug and were further incubated for an additional 10 days. After 10 days, the media was removed and colonies were fixed and stained in 95% ethanol and 0.1% crystal violet for 15 minutes. The stain was removed and plates were washed in deionized water. Colonies were quantified. All conditions were measured in triplicate and all experiments were performed in triplicate.
For 2,3-bis[2-methoxy-4-nitro-5-sulfophenyl]-2H-tetrazolium-5-carboxanilide (XTT) assays, five thousand cells were plated in 96-well plates. The next day, vehicle (DMSO) or drug was added by serial dilution. Four days later, media were aspirated, XTT solution (0.3 mg/ml of XTT (Sigma), 2.65 mg/ml N-methyl dibenxopyrazine methyl sulfate (Simga) in phenol red-free media) was added, and the plates were incubated at 37° C. for 1-2 hours. Metabolism of XTT was quantified by measuring the absorbance at 450 nm. IC50s were calculated using linear interpolation. For clonogenic survival assays, three hundred cells were plated per 60 mm tissue culture dish. The cells were allowed to attach overnight and then treated with vehicle or drug for 14 days. […] All conditions were measured in triplicate and each experiment was done in duplicate or triplicate. […] Live and dead cells were counted on a hematocytometer.

786-O = assay: 3H-2-deoxyglucose uptake, 786-O; format: cell-based, human; details: 5 μM, FIG. 8B
Method: (§1) One hundred thousand cells were plated into 6-well plates. The following day, the cells were treated with vehicle or drug and incubated for the indicated time. Cells were washed twice in phosphate buffered saline and low glucose media was added for 30 minutes. Cells were then incubated with 0.5 microCi of tritiated-2-deoxyglucose and incubated for an hour at 37° C. Cells were washed twice in PBS and then lysed in 0.2 N NaOH and 0.2% SDS. Lysates were transferred to scintillation tubes with scintillation fluid and quantified by scintillation counter.
(§2) One hundred thousand cells were plated per well in a six-well plate. The next day, cells were treated with the indicated concentration of drug and incubated for the indicated time. Cells were then washed twice with phosphate-buffered saline, incubated in low-glucose medium for 30 minutes, and ^3H-2-deoxyglucose (0.5 μCi) was added in 1 ml of glucose-free media for an additional hour. Cells were washed twice in PBS and lysed (0.2 N NaOH and 0.2% sodium dodecyl sulfate). Glucose uptake was quantified with a scintillation counter.

RCC4/VHL [2] = assay: 3H-2-deoxyglucose uptake, RCC4/VHL; format: cell-based, human; details: 5 μM
Method: as §1, §2

CHK1 = target: T1, CHK1 (Homo sapiens, UniProt O14757); assay: In vitro kinase activity (Millipore KinaseProfiler): CHK1; format: biochemical; details: no head or unit printed
T1 construct: purchased Millipore (KinaseProfiler service)
Method: (§3) All cells were grown in DMEM+10% FCS. ACHN and ACHN shVHL were a kind gift from George V. Thomas (UCLA). HIF overexpressing clones were described previously. Transfection of RNA oligos were performed with DnarmaFECT Reagent 1 (Dharmcon), according to manufacturer's directions. ON-TARGETplus SMART pools against HIF-1β/ARNT were purchased from Dharmacon. Glut1 was detected with anti-GLUT1 antibody from NeoMarkers/LabVision/Fisher. Pyruvate/lactate levels and hexokinase activity were both measured by fluorometric assay (BioVision and Sigma-Aldrich, respectively). ATP levels were measured by bioluminescence assay (ATP Determination Kit from Molecular Probes/Invitrogen). In vitro kinase activities were performed by Millipore KinaseProfiler. Affi-Gel 10 (BioRad) activated affinity media was coupled to analogs to generate immobilized affinity linkers.
(§4) We next wanted to investigate the differential glucose uptake between RCCs with and without VHL treated with compound 47 that subsequently lead to the selective death of VHL-deficient cells. We first examined the message levels of the two main glucose transporters, GLUT1 and GLUT2 by quantitative real-time PCR. GLUT1 is an inducible, high-affinity glucose transporter, while GLUT2 is the glucose transporter responsible for basal glucose uptake. […] Cells deficient in VHL had very low levels of GLUT2 that could barely be detected (FIG. 3J). […]

IGF-1R = target: T2, IGF-1R (Homo sapiens, UniProt P08069); assay: In vitro kinase activity (Millipore KinaseProfiler): IGF-1R; format: biochemical; details: no head or unit printed
T2 construct: purchased Millipore (KinaseProfiler service)
Method: as §3, §4

JNK1α1 = target: T3, JNK1α1 (Homo sapiens, UniProt P45983); assay: In vitro kinase activity (Millipore KinaseProfiler): JNK1α1; format: biochemical; details: no head or unit printed
T3 construct: purchased Millipore (KinaseProfiler service)
Method: as §3, §4

MLK1 = target: T4, MLK1 (Homo sapiens, UniProt P80192); assay: In vitro kinase activity (Millipore KinaseProfiler): MLK1; format: biochemical; details: no head or unit printed
T4 construct: purchased Millipore (KinaseProfiler service)
Method: as §3, §4

PDK1 = target: T5, PDK1 (Homo sapiens, UniProt O15530); assay: In vitro kinase activity (Millipore KinaseProfiler): PDK1; format: biochemical; details: no head or unit printed
T5 construct: purchased Millipore (KinaseProfiler service)
Method: as §3, §4

PI3K = assay: In vitro kinase activity (Millipore KinaseProfiler): PI3K; format: biochemical; details: no head or unit printed
Method: as §3, §4

T2 sequence (P08069 31-1367, species assumed): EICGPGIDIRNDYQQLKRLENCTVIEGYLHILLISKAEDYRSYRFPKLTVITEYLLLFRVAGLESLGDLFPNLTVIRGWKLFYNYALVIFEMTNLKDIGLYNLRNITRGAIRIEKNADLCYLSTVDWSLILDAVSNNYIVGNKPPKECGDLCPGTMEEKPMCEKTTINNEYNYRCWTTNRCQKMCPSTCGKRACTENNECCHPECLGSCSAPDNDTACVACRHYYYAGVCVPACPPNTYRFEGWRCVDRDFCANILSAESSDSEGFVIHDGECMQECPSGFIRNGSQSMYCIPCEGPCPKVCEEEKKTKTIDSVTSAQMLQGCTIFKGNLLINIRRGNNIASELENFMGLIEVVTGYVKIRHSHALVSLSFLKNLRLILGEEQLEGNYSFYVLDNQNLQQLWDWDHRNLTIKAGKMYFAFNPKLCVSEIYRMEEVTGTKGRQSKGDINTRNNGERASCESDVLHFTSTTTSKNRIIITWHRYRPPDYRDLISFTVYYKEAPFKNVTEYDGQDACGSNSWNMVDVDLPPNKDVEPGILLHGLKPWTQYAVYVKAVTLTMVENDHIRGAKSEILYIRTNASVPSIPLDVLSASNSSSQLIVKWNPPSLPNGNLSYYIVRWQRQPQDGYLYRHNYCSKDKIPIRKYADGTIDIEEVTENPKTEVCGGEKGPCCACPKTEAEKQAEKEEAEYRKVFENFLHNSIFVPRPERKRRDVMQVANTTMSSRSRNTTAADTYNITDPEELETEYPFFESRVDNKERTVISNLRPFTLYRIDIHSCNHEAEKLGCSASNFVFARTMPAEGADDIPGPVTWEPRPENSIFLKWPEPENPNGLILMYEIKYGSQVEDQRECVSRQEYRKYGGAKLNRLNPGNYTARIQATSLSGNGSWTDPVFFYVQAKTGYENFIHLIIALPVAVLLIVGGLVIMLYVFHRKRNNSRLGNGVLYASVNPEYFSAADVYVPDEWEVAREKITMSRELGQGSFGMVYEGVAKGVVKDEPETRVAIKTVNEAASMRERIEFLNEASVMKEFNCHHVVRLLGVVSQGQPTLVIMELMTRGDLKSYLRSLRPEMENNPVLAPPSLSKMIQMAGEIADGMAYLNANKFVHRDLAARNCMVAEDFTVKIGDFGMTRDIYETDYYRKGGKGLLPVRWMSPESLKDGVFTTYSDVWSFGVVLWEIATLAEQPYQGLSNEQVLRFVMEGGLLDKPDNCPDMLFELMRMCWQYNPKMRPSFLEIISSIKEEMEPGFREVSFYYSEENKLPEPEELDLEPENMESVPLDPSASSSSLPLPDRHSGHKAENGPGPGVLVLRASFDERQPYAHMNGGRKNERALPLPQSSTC
T4 sequence (P80192 whole entry, species assumed): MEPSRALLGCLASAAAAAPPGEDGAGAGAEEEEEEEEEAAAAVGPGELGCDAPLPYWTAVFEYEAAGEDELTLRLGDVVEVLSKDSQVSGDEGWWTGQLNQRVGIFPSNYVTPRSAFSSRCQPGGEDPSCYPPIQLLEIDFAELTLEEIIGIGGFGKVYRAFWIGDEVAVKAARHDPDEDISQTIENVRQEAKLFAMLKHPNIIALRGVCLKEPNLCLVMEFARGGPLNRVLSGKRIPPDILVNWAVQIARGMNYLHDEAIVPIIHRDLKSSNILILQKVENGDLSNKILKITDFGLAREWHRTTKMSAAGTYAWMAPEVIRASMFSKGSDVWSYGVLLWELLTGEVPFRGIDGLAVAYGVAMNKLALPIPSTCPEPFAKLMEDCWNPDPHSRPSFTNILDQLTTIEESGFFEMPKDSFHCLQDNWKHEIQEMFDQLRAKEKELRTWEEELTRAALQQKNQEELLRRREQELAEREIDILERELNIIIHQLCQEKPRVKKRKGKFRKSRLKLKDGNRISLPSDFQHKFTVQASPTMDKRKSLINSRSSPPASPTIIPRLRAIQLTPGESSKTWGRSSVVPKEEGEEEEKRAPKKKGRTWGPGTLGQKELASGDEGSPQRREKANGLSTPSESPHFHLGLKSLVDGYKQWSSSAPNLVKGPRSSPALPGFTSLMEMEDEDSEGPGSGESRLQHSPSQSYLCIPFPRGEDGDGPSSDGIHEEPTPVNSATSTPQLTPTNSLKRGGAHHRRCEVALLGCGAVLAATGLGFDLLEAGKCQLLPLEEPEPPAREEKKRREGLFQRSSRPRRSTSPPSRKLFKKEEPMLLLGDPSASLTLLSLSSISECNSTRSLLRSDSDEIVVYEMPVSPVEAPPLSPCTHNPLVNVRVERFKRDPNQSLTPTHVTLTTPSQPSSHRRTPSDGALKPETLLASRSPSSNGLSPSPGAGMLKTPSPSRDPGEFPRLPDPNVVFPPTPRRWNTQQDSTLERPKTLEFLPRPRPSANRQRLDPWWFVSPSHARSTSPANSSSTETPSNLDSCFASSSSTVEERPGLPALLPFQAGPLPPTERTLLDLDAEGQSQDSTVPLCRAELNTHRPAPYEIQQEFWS
T5 sequence (O15530 whole entry): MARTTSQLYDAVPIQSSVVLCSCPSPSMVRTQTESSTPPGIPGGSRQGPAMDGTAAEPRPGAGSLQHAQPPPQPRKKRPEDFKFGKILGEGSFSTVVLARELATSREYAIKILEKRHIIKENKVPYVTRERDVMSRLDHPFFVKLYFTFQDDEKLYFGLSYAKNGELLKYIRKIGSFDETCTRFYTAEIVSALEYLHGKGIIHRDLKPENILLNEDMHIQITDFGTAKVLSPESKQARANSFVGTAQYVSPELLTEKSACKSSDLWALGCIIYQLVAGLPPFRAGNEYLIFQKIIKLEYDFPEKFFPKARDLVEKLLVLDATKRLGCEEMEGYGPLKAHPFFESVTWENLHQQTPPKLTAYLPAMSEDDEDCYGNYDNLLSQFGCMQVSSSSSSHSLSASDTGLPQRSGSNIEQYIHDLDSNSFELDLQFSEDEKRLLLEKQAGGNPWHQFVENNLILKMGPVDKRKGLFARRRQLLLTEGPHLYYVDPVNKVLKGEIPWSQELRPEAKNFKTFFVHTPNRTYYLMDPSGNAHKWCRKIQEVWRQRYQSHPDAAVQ
T1 sequence (O14757 whole entry, species assumed): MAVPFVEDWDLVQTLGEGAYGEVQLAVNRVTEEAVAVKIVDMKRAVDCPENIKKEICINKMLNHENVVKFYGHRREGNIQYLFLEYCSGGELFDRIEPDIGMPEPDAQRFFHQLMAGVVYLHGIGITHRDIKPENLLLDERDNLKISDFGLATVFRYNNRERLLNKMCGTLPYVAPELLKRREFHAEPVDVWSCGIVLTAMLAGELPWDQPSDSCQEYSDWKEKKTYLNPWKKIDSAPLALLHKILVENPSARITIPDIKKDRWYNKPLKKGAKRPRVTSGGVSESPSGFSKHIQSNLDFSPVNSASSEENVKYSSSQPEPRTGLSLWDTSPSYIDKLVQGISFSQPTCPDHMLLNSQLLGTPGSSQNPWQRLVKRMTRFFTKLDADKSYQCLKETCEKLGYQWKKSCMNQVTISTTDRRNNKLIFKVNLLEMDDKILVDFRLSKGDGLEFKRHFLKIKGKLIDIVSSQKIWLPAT
T3 sequence (P45983 1-384 isoform P45983-2, species assumed): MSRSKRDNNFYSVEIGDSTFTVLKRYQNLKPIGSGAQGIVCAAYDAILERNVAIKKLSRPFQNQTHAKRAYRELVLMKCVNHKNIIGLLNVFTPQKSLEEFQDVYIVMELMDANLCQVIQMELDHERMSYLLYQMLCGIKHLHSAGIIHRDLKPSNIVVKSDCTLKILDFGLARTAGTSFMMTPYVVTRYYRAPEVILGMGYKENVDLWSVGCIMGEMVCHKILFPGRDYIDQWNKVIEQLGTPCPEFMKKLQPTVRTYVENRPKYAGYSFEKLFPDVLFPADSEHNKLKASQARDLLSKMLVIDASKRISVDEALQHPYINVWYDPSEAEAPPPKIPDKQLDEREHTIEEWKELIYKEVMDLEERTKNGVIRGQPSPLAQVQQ

CC(C)(C)c1ccc(S(=O)(=O)NCc2ccc(C(=O)Nc3cccnc3)cc2)cc1 [Example 38, 4-((4-tert-Butylphenylsulfonamido)methyl)-N-(pyridin-3-yl)benzamide]
IC50 (RCC4; Homo sapiens, RCC4, 96 h, XTT assay, four days): < 1000 nM | number of RCC4 cells compared to RCC4/VHL (XTT metabolic activity) (RCC4; four days of treatment, concentration-dependent, FIG. 2A): significant decrease in the number of RCC4 cells | clonogenic survival of RCC4/VHL (RCC4/VHL [1]): relatively unaffected | glucose uptake in 786-O cells (786-O): impaired glucose uptake | glucose uptake in RCC4/VHL cells (RCC4/VHL [2]): unaffected | CHK1 kinase activity (CHK1): 114 | IGF-1R kinase activity (IGF-1R): 108 | JNK1α1 kinase activity (JNK1α1): 101 | MLK1 kinase activity (MLK1): 97% | PDK1 kinase activity (PDK1): 105% | PI3K kinase activity (PI3K): 97
